In PubChem BioAssay (NCI):
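These data come from cells grown in 96-well plates and exposed to compound for 48 hours at five concentrations. Abbreviation: GI50, concentration required for 50% inhibition of growth. TGI: concentration producing complete growth inhibition.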

Key:
Assay in all cases: growth of human tumour cells (NCI), 48 h
NCI-H460 lung = system: NCI-H460 lung
OVCAR-3 ovarian = system: OVCAR-3 ovarian
CAKI-1 renal = system: CAKI-1 renal
T-47D breast = system: T-47D breast
HS 578T breast = system: HS 578T breast
OVCAR-8 ovarian = system: OVCAR-8 ovarian
SW-620 colon = system: SW-620 colon
ACHN renal = system: ACHN renal
OVCAR-4 ovarian = system: OVCAR-4 ovarian
TK-10 renal = system: TK-10 renal

Structure (SMILES)	GI50 (NCI-H460 lung)	TGI (NCI-H460 lung)	GI50 (OVCAR-3 ovarian)	TGI (OVCAR-3 ovarian)	GI50 (CAKI-1 renal)	TGI (CAKI-1 renal)	GI50 (T-47D breast)	TGI (T-47D breast)	GI50 (HS 578T breast)	TGI (HS 578T breast)	GI50 (OVCAR-8 ovarian)	TGI (OVCAR-8 ovarian)	GI50 (SW-620 colon)	TGI (SW-620 colon)	GI50 (ACHN renal)	TGI (ACHN renal)	GI50 (OVCAR-4 ovarian)	TGI (OVCAR-4 ovarian)	GI50 (TK-10 renal)	TGI (TK-10 renal)
CCCCCCCCCCCCOC1C(C(CC(=O)N2CCN(Cc3ccc4c(c3)OCO4)CC2)NS(=O)(=O)c2cc(Cl)cc(Cl)c2)OC2OC(C)(C)OC21 (stereo not drawn)	5.44 µM	35 µM	20.3 µM	> 100 µM	> 100 µM	> 100 µM	28.9 µM	> 100 µM	9.17 µM	> 68.9 µM	20.6 µM	> 100 µM	16.4 µM	> 100 µM	33.8 µM	> 100 µM	18.1 µM	> 100 µM	58 µM	> 100 µM
O=C(Oc1ccc2c(c1)CN(Cc1ccccc1)CO2)c1ccccc1	–	36.1 µM	–	29.7 µM	–	37.8 µM	–	70 µM	–	61.5 µM	–	32.9 µM	–	56.4 µM	–	32.9 µM	–	32.8 µM	–	29.8 µM
Fc1ccc(-c2nn3c(COc4ccc(Cl)cc4)nnc3s2)cc1Oc1ccccc1	23.9 µM	> 54.5 µM	14.1 µM	37.8 µM	34.9 µM	> 100 µM	28 µM	> 66.3 µM	22.4 µM	61.4 µM	21.2 µM	66.3 µM	48.4 µM	> 100 µM	31.4 µM	> 53.1 µM	50.4 µM	> 100 µM	13.8 µM	30.3 µM
C=C1CC/C=C(\C)CC[C@H](C(=C)C)[C@@H](O)/C=C(/CO)CCC1O (stereo partly drawn)	54.8 µM	> 100 µM	40 µM	> 100 µM	81.4 µM	> 100 µM	45.7 µM	> 100 µM	42.5 µM	> 100 µM	> 100 µM	> 100 µM	72.8 µM	> 100 µM	> 100 µM	> 100 µM	> 100 µM	> 100 µM	17.4 µM	68.7 µM
COC(=O)[C@H](Cc1cn(C)cn1)NC(=O)[C@@H](NC(=O)Nc1cc(C(F)(F)F)cc(C(F)(F)F)c1)C(C)C	3.53 µM	> 10 µM	1.86 µM	3.48 µM	> 10 µM	> 10 µM	3.14 µM	> 10 µM	4.83 µM	> 10 µM	2.16 µM	5.22 µM	2.59 µM	8.25 µM	> 10 µM	> 10 µM	4.58 µM	> 10 µM	9.9 µM	> 10 µM
COc1ccc(Cc2nc3cc(OC)c(OC)cc3c(=O)[nH]2)cc1	15.3 µM	> 100 µM	12.5 µM	> 66.1 µM	6.64 µM	> 93.4 µM	21.5 µM	> 100 µM	9.98 µM	99.2 µM	13 µM	> 100 µM	3.32 µM	> 63.5 µM	9.14 µM	> 100 µM	25.4 µM	> 100 µM	11.8 µM	54 µM
CCSc1ncc(Br)c(Sc2nc(N)nc3nc[nH]c23)n1	3.08 µM	23.4 µM	2.55 µM	25 µM	3.43 µM	> 100 µM	3.07 µM	> 100 µM	7.47 µM	> 100 µM	4.54 µM	> 100 µM	17.7 µM	> 100 µM	6.58 µM	> 100 µM	2.29 µM	30.5 µM	2.55 µM	25.9 µM
CC1=C2[C@@H](CC1)[C@]1(C)O[C@@](C3CC3)(C[C@H]1OC(=O)CO)[C@H]2OC(=O)/C=C/c1ccccc1	16.6 µM	33.1 µM	15.3 µM	29.2 µM	10.9 µM	24 µM	12.1 µM	36.6 µM	< 0.0153 µM	0.845 µM	0.0834 µM	15.4 µM	19.1 µM	36.7 µM	0.0339 µM	13.2 µM	14.5 µM	29.2 µM	18.7 µM	33.8 µM
COc1cc(OC)cc(-c2ccc(-c3ccc(C(=N)N)cn3)s2)c1	1.87 µM	3.45 µM	1.77 µM	3.2 µM	1.73 µM	3.2 µM	2.1 µM	5.09 µM	1.86 µM	3.98 µM	2.3 µM	5.3 µM	1.91 µM	3.8 µM	1.81 µM	3.2 µM	1.9 µM	3.64 µM	2.06 µM	4.09 µM
COc1cc(/C=C\c2cc(OC)c(OC)c(OC)c2)cc(NS(=O)(=O)c2ccc(Cl)cc2)c1OC	0.364 µM	51.4 µM	0.364 µM	> 100 µM	0.374 µM	50 µM	0.381 µM	> 100 µM	0.351 µM	> 100 µM	0.6 µM	> 100 µM	0.343 µM	> 100 µM	0.586 µM	29.9 µM	1.53 µM	> 100 µM	0.779 µM	99.6 µM
CCN(CC)CCOc1ccc2c(C)c(C(=O)OC)oc2c1C(=O)/C=C/c1ccc(OC)cc1	3.65 µM	> 67.4 µM	4.36 µM	12.2 µM	3.82 µM	10.7 µM	12.9 µM	38.5 µM	24.1 µM	51.4 µM	20.2 µM	40.1 µM	22.7 µM	47.7 µM	1.85 µM	5.25 µM	2.43 µM	6.85 µM	1.94 µM	5.14 µM
COc1cc(N(CCC#N)CCC#N)ccc1/C(N=Nc1ccc(C(=O)O)cc1)=N/NC(=O)c1cc(Br)ccc1O	40.9 µg/mL	> 150 µg/mL	65 µg/mL	> 150 µg/mL	130 µg/mL	> 150 µg/mL	64.4 µg/mL	> 150 µg/mL	77.3 µg/mL	> 150 µg/mL	50.6 µg/mL	> 150 µg/mL	> 150 µg/mL	> 150 µg/mL	108 µg/mL	> 150 µg/mL	30 µg/mL	65.5 µg/mL	–	–
